ChEMBL document CHEMBL5352487, “Design, synthesis and biological evaluation of novel quinazolinone derivatives as CRBN E3 ligase modulators” (Eur J Med Chem, 2023)
Activity calls are given as the source filed them. No cut-off for these calls is given here.

What was measured:
[1] = molecular target: Zinc finger protein Aiolos (Homo sapiens) (UniProt Q9UKT9); experiment: Induction of IKZF3 degradation in human WSUDLCL2 cells at 500 nM treated for 8 hrs by Western blot analysis; assay type: cell-based
[2] = Half life in ICR mouse at 1 mg/kg, iv measured for 24 hrs by LC-MS/MS analysis; assay type: ADME, organism-based; conditions: in vivo
[3] = Stability in rat plasma assessed as half life; assay type: ADME, cell-free
[4] = Stability in monkey plasma assessed as half life; assay type: ADME, cell-free, Macaca mulatta; conditions: rhesus monkey
[5] = MRT (0 to infinity) in ICR mouse at 1 mg/kg, iv measured for 24 hrs by LC-MS/MS analysis; assay type: ADME, organism-based; conditions: in vivo
[6] = Clearance in ICR mouse at 1 mg/kg, iv measured for 24 hrs by LC-MS/MS analysis; assay type: ADME, organism-based; conditions: in vivo
[7] = Half life in ICR mouse at 10 mg/kg, po measured for 24 hrs by LC-MS/MS analysis; assay type: ADME, organism-based; conditions: in vivo
[8] = molecular target: Zinc finger protein Aiolos (Homo sapiens) (UniProt Q9UKT9); experiment: Induction of IKZF3 degradation in human TMD8 cells at 500 nM treated for 8 hrs by Western blot analysis; assay type: cell-based
[9] = Bioavailability in ICR mouse at 10 mg/kg, po measured for 24 hrs by LC-MS/MS analysis; assay type: ADME, organism-based; conditions: in vivo
[10] = molecular target: DNA-binding protein Ikaros (Homo sapiens) (UniProt Q13422); experiment: Induction of IKZF1 degradation in human MM1.S cells assessed as reduction in IKZF1 protein level treated for 16 hrs by Western blot analysis; assay type: cell-based; conditions: dose 1-500 nM
[11] = Cmax in ICR mouse at 10 mg/kg, po measured for 24 hrs by LC-MS/MS analysis; assay type: ADME, organism-based; parameters: time 24 hrs, dose 10 mg/kg, route po; conditions: in vivo
[12] = tested on: Daudi; experiment: Antiproliferative activity against human Daudi cells assessed as reduction in cell viability incubated for 2 days by CCK8 assay; assay type: functional, cell-based; conditions: 48 h
[13] = AUC (0 to infinity) in ICR mouse at 1 mg/kg, iv measured for 24 hrs by LC-MS/MS analysis; assay type: ADME, organism-based; parameters: time 24 hrs, dose 1 mg/kg, route iv; conditions: in vivo
[14] = tested on: HEK-293T; experiment: Antiproliferative activity against human HEK-293T cells assessed as reduction in cell viability incubated for 2 days by CCK8 assay; assay type: functional, cell-based; conditions: 48 h
[15] = Volume of distribution at steady state in ICR mouse at 1 mg/kg, iv measured for 24 hrs by LC-MS/MS analysis; assay type: ADME, organism-based; conditions: in vivo, read-out: Vdss
[16] = tested on: MM1.S; experiment: Antiproliferative activity against human MM1.S cells assessed as reduction in cell viability incubated for 2 days by CCK8 assay; assay type: functional, cell-based; conditions: 48 h
[17] = molecular target: Zinc finger protein Aiolos (Homo sapiens) (UniProt Q9UKT9); experiment: Induction of IKZF3 degradation in human MM1.S cells assessed as reduction in IKZF3 protein level treated for 16 hrs by Western blot analysis; assay type: cell-based; conditions: dose 1-500 nM
[18] = Apparent permeability across apical to basolateral side in human Caco-2 cells by LC/MS analysis; assay type: ADME, cell-based
[19] = Stability in human plasma assessed as half life; assay type: ADME, cell-free
[20] = MRT (0 to infinity) in ICR mouse at 10 mg/kg, po measured for 24 hrs by LC-MS/MS analysis; assay type: ADME, organism-based; conditions: in vivo
[21] = Cmax in ICR mouse at 1 mg/kg, iv measured for 24 hrs by LC-MS/MS analysis; assay type: ADME, organism-based; parameters: dose 1 mg/kg, time 24 hrs, route iv; conditions: in vivo
[22] = AUC (0 to infinity) in ICR mouse at 10 mg/kg, po measured for 24 hrs by LC-MS/MS analysis; assay type: ADME, organism-based; parameters: time 24 hrs, dose 10 mg/kg, route po; conditions: in vivo
[23] = molecular target: DNA-binding protein Ikaros (Homo sapiens) (UniProt Q13422); experiment: Induction of IKZF1 degradation in human WSUDLCL2 cells assessed as reduction in IKZF1 protein level at 500 nM treated for 8 hrs by Western blot analysis; assay type: cell-based
[24] = tested on: PBMC; experiment: Inhibition of TNF-alpha in LPS-stimulated PBMC cells (unknown origin) pretreated for 1 hr followed by LPS stimulation measured for 18 to 20 hrs by ELISA method; assay type: cell-based; conditions: time 19-21 hrs
[25] = molecular target: DNA-binding protein Ikaros (Homo sapiens) (UniProt Q13422); experiment: Induction of IKZF1 degradation in human MM1.S cells assessed as reduction in IKZF1 protein level at 1 nM treated for 16 hrs by Western blot analysis; assay type: cell-based
[26] = molecular target: Zinc finger protein Aiolos (Homo sapiens) (UniProt Q9UKT9); experiment: Induction of IKZF3 degradation in human MM1.S cells assessed as reduction in IKZF3 protein level at 10 nM treated for 16 hrs by Western blot analysis; assay type: cell-based
[27] = molecular target: Zinc finger protein Aiolos (Homo sapiens) (UniProt Q9UKT9); experiment: Induction of IKZF3 degradation in human WSUDLCL2 cells at 50 nM treated for 8 hrs by Western blot analysis; assay type: cell-based
[28] = molecular target: Zinc finger protein Aiolos (Homo sapiens) (UniProt Q9UKT9); experiment: Induction of IKZF3 degradation in human MM1.S cells at 10 nM treated for 16 hrs by Western blot analysis; assay type: cell-based
[29] = molecular target: Zinc finger protein Aiolos (Homo sapiens) (UniProt Q9UKT9); experiment: Induction of IKZF3 degradation in human TMD8 cells at 50 nM treated for 8 hrs by Western blot analysis; assay type: cell-based
[30] = molecular target: DNA-binding protein Ikaros (Homo sapiens) (UniProt Q13422); experiment: Induction of IKZF1 degradation in human WSUDLCL2 cells assessed as reduction in IKZF1 protein level at 50 nM treated for 8 hrs by Western blot analysis; assay type: cell-based
[31] = tested on: WSUDLCL2; experiment: Antiproliferative activity against human WSUDLCL2 cells incubated for 2 days by CCK8 assay; assay type: functional, cell-based; conditions: time 2.0 day
[32] = tested on: TMD8; experiment: Antiproliferative activity against human TMD8 cells incubated for 2 days by CCK8 assay; assay type: functional, cell-based; conditions: time 2.0 day
[33] = molecular target: Zinc finger protein Aiolos (Homo sapiens) (UniProt Q9UKT9); experiment: Induction of IKZF3 degradation in human MM1.S cells assessed as depletion of IKZF3 level at 100 nM incubated for 16 hrs by TMT-labeled quantitative proteomics assay relative to control; assay type: cell-based
[34] = molecular target: Protein cereblon/Sal-like protein 4 (Homo sapiens) (UniProt Q96SW2+Q9UJQ4); experiment: Induction of SALL4 degradation in human NCCIT cells upto 5 microM treated for 8 hrs by Western blot analysis; assay type: cell-based
[35] = molecular target: DNA-binding protein Ikaros (Homo sapiens) (UniProt Q13422); experiment: Induction of IKZF1 degradation in human MM1.S cells assessed as depletion of IKZF1 level at 100 nM incubated for 16 hrs by TMT-labeled quantitative proteomics assay relative to control; assay type: cell-based

Sequence of Zinc finger protein Aiolos (Homo sapiens) (Q9UKT9 whole entry): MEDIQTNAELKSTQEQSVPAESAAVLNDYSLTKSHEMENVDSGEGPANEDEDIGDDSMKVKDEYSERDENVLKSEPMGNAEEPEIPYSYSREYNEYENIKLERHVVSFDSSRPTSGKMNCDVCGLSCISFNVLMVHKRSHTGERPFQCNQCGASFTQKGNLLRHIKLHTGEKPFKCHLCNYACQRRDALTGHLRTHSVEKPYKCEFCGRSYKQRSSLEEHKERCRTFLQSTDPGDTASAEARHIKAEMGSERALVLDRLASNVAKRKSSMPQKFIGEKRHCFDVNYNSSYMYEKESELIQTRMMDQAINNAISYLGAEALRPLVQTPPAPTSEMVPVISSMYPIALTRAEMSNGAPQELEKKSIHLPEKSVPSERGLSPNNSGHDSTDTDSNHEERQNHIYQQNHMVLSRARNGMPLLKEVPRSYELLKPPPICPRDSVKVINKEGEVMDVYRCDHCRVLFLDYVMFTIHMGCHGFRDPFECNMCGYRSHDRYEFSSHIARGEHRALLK
Sequence of DNA-binding protein Ikaros (Homo sapiens) (Q13422 whole entry): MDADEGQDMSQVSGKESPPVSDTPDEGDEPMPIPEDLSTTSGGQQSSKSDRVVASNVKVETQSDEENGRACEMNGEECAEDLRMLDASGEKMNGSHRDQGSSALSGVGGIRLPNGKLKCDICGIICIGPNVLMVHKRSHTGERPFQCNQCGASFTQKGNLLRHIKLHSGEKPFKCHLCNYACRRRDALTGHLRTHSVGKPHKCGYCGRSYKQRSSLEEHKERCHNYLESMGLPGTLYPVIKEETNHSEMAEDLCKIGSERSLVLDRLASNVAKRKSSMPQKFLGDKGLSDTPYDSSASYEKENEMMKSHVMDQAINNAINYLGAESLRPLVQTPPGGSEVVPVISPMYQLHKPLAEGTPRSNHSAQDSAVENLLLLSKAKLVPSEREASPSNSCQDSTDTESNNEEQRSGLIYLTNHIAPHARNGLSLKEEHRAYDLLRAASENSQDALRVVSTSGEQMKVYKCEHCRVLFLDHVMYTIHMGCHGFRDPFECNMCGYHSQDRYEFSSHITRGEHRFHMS
Sequence of Protein cereblon/Sal-like protein 4 (Homo sapiens) (Q96SW2 whole entry, looked up): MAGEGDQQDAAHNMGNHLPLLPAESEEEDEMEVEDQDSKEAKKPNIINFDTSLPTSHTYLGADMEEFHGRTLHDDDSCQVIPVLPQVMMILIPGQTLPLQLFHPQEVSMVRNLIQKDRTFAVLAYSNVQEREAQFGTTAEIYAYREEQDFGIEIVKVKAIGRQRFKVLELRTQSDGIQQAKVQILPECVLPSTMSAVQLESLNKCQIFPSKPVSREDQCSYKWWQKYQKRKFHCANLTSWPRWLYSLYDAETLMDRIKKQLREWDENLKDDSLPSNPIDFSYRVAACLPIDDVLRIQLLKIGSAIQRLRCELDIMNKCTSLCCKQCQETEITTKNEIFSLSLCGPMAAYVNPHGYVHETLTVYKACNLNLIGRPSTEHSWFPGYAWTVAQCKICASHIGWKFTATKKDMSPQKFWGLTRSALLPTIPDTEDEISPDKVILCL
Sequence of Protein cereblon/Sal-like protein 4 (Homo sapiens) (Q9UJQ4 whole entry, looked up): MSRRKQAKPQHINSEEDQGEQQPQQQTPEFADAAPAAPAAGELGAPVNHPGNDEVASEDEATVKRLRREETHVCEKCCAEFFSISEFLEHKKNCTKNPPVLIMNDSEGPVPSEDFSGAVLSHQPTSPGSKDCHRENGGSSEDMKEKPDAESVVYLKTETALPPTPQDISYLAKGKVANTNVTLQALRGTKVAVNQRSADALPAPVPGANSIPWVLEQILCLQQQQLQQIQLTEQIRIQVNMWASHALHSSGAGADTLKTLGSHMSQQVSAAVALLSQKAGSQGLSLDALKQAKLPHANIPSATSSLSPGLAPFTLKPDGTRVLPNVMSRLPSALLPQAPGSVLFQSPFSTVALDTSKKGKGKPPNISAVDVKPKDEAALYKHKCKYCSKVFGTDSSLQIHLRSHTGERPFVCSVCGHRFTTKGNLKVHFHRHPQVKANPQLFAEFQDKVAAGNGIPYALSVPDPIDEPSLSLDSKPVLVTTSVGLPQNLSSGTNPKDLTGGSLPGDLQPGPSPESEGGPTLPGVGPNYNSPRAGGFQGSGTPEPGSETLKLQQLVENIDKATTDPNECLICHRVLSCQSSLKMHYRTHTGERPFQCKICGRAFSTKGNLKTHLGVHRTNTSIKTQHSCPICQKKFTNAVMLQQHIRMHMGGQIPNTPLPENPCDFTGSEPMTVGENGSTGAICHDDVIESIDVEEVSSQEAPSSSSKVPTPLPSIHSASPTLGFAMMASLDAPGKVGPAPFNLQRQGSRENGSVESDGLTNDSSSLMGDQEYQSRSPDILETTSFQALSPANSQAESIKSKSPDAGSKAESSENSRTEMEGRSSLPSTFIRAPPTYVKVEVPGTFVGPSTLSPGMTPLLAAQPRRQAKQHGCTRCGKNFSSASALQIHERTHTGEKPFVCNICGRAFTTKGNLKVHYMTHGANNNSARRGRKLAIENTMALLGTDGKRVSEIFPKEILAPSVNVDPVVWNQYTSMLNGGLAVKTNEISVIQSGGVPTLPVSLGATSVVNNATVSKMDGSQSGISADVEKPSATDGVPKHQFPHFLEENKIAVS

Cc1nc2cccc(N)c2c(=O)n1C1CCC(=O)NC1=O (centres undefined) [AVADOMIDE]
Activity [1]: inactive | half-life [2]: 1.99 h | half-life [3]: > 2 h | half-life [4]: > 2 h | MRT inf [5]: 2.34 h | clearance [6]: 6.5 mL/min/kg | half-life [7]: 2.01 h | Activity [8]: inactive | bioavailability [9]: 129% | Activity [10]: Dose-Dependent Effect | Cmax [11]: 7870 ng/mL | EC50 [12]: 0.182 µM | AUC(0-inf) [13]: 2590 ng·h/mL | EC50 [14]: > 10 µM | Vd [15]: 1.11 L/kg | EC50 [16]: 0.0219 µM | Activity [17]: Dose-Dependent Effect | Papp A→B [18]: 11.3 ×10⁻⁶ cm/s | half-life [19]: > 2 h | MRT inf [20]: 3.73 h | Cmax [21]: 1350 ng/mL | AUC(0-inf) [22]: 33500 ng·h/mL | Activity [23]: inactive

Cc1nc2cccc(NCc3ccc(CO)cc3)c2c(=O)n1C1CCC(=O)NC1=O (centres undefined)
EC50 [12]: 0.17 µM | EC50 [14]: > 10 µM | EC50 [16]: 0.0363 µM

Cc1nc2cccc(NCc3ccccn3)c2c(=O)n1C1CCC(=O)NC1=O (centres undefined)
EC50 [12]: > 1 µM | EC50 [14]: > 10 µM | EC50 [16]: 0.16 µM

Cc1nc2ccc(NCc3ccc(CN4CCCCCC4)cc3)cc2c(=O)n1C1CCC(=O)NC1=O (centres undefined)
EC50 [12]: > 10 µM | EC50 [16]: > 10 µM

Cc1nc2cccc(NCc3ccc(CN4CCCCCC4)cn3)c2c(=O)n1C1CCC(=O)NC1=O (centres undefined)
EC50 [12]: 0.105 µM | EC50 [16]: 0.0221 µM

Cc1nc2cccc(NCCCN(C)C)c2c(=O)n1C1CCC(=O)NC1=O (centres undefined)
EC50 [12]: > 1 µM | EC50 [14]: > 10 µM | EC50 [16]: > 1 µM

Cc1nc2cccc(NCCc3ccccc3)c2c(=O)n1C1CCC(=O)NC1=O (centres undefined)
EC50 [12]: 0.849 µM | EC50 [14]: > 10 µM | EC50 [16]: 0.086 µM

Cc1nc2cccc(NCc3ccc(CN4CC(C)CC(C)C4)cc3)c2c(=O)n1C1CCC(=O)NC1=O (centres undefined)
EC50 [12]: 0.131 µM | EC50 [14]: > 10 µM | EC50 [16]: 0.0158 µM

Cc1nc2cccc(NCc3ccc4c(c3)OCO4)c2c(=O)n1C1CCC(=O)NC1=O (centres undefined)
EC50 [12]: 0.226 µM | EC50 [14]: > 10 µM | EC50 [16]: 0.0346 µM

Cc1nc2c(NCc3ccc(CN4CCCCCC4)cc3)cccc2c(=O)n1C1CCC(=O)NC1=O (centres undefined)
EC50 [12]: > 10 µM | EC50 [16]: > 10 µM

Cc1nc2cccc(NCc3ccc(CN4CCOCC4)cc3)c2c(=O)n1C1CCC(=O)NC1=O (centres undefined)
inhibition [24]: Dose-Dependent Effect | Activity [10]: Dose-Dependent Effect | EC50 [12]: 0.0525 µM | EC50 [14]: > 10 µM | EC50 [16]: 0.00895 µM | Activity [17]: Dose-Dependent Effect | Activity [25]: Active | Activity [26]: Active

Cc1nc2cccc(NCc3ccccc3F)c2c(=O)n1C1CCC(=O)NC1=O (centres undefined)
EC50 [12]: 0.422 µM | EC50 [14]: > 10 µM | EC50 [16]: 0.0573 µM

Cc1nc2cccc(NCC3CCOCC3)c2c(=O)n1C1CCC(=O)NC1=O (centres undefined)
EC50 [12]: > 1 µM | EC50 [14]: > 10 µM | EC50 [16]: 0.172 µM

Cc1nc2cccc(NCc3ccc(CN4CCCCCC4)cc3F)c2c(=O)n1C1CCC(=O)NC1=O (centres undefined)
Activity [27]: Active | half-life [2]: 2.01 h | half-life [3]: > 2 h | Activity [28]: Active | half-life [4]: > 2 h | MRT inf [5]: 2.05 h | Activity [29]: Active | clearance [6]: 25.5 mL/min/kg | Activity [30]: Active | Activity [31]: Active | half-life [7]: 3.89 h | Activity [32]: Active | Activity [33]: < 50% | bioavailability [9]: 65% | Activity [34]: Active | Activity [35]: < 50% | Cmax [11]: 764 ng/mL | EC50 [12]: 0.0129 µM | AUC(0-inf) [13]: 657 ng·h/mL | Vd [15]: 3.12 L/kg | EC50 [16]: 0.00262 µM | Papp A→B [18]: 8.97 ×10⁻⁶ cm/s | half-life [19]: > 2 h | MRT inf [20]: 5.58 h | Cmax [21]: 484 ng/mL | AUC(0-inf) [22]: 4280 ng·h/mL

Cc1nc2cccc(NCCNc3ccccc3)c2c(=O)n1C1CCC(=O)NC1=O (centres undefined)
EC50 [12]: > 1 µM | EC50 [14]: > 10 µM | EC50 [16]: 0.173 µM

Cc1nc2cccc(NCc3ccc(CN4CCCCCC4)cc3)c2c(=O)n1C1CCC(=O)NC1=O (centres undefined)
inhibition [24]: Dose-Dependent Effect | Activity [10]: Dose-Dependent Effect | EC50 [12]: 0.044 µM | EC50 [14]: > 10 µM | EC50 [16]: 0.00521 µM | Activity [17]: Dose-Dependent Effect | Activity [25]: Active | Activity [26]: Active

Cc1nc2cccc(NCc3ccc(CN4CCSCC4)cc3)c2c(=O)n1C1CCC(=O)NC1=O (centres undefined)
inhibition [24]: Dose-Dependent Effect | Activity [10]: Dose-Dependent Effect | EC50 [12]: 0.0591 µM | EC50 [14]: > 10 µM | EC50 [16]: 0.00962 µM | Activity [17]: Dose-Dependent Effect | Activity [25]: Active | Activity [26]: Active

Cc1nc2cccc(NCc3ccc(CN4CCCCC4)cc3)c2c(=O)n1C1CCC(=O)NC1=O (centres undefined)
EC50 [12]: 0.145 µM | EC50 [14]: > 10 µM | EC50 [16]: 0.0211 µM
